{
  "source": "paper PMC9186362",
  "about": "“Design and biological evaluation of substituted 5,7-dihydro-6H-indolo[2,3-c]quinolin-6-one as novel selective Haspin inhibitors” (Journal of Enzyme Inhibition and Medicinal Chemistry, 2022)",
  "assay_in_all_cases": "SelectScreen ZLYTE",
  "type_in_all_cases": "biochemical",
  "key": {"[1]": {"molecular_target": "T1, ABL2 (Arg) (Homo sapiens, UniProt P42684)", "T1 construct": "purchased Life Technologies (SelectScreen service)", "settings": "ATP Km, read-out: Percentage of inhibition", "procedure,_shortened": "(§1)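 Compound tested at 1 μM only; no dose–response. Data are % inhibition from a whole-panel kinase screen.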"}, "[2]": {"molecular_target": "T2, ADRBK2 (GRK3) (Homo sapiens, UniProt P35626)", "T2 construct": "purchased Life Technologies (SelectScreen Whole Panel)", "settings": "ATP Km, read-out: Percentage of inhibition", "procedure,_shortened": "as §1"}, "[3]": {"molecular_target": "AKT2 (PKB beta) (Homo sapiens, UniProt P31751)", "sequence (P31751 whole entry)": "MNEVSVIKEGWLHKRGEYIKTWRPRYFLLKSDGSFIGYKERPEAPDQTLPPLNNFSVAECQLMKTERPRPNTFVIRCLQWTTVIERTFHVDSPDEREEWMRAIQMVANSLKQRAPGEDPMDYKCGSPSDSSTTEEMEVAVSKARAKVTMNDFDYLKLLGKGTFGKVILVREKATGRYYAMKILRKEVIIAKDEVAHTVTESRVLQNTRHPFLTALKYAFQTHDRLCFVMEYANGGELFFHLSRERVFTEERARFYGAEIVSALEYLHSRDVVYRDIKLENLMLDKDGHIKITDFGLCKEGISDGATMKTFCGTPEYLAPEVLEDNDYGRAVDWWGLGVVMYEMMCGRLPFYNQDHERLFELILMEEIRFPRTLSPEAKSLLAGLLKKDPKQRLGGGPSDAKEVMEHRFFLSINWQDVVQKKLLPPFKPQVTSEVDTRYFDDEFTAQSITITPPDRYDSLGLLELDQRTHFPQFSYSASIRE", "settings": "ATP Km, read-out: Percentage of inhibition", "procedure,_shortened": "as §1"}, "[4]": {"molecular_target": "BMX (Homo sapiens, UniProt P51813)", "settings": "ATP Km, read-out: Percentage of inhibition", "procedure,_shortened": "as §1"}, "[5]": {"molecular_target": "T3, CAMK1D (CaMKI delta) (Homo sapiens, UniProt Q8IU85)", "T3 construct": "purchased Life Technologies (SelectScreen)", "settings": "ATP Km, read-out: Percentage of inhibition", "procedure,_shortened": "as §1"}, "[6]": {"molecular_target": "T4, CDK5/p35 (Homo sapiens, UniProt Q00535)", "T4 construct": "purchased Life Technologies", "settings": "ATP Km, read-out: Percentage of inhibition", "procedure,_shortened": "as §1"}, "[7]": {"molecular_target": "T5, CLK1 (Homo sapiens, UniProt P49759)", "T5 construct": "purchased Life Technologies (SelectScreen Whole Panel)", "settings": "ATP Km, read-out: Percentage of inhibition", "procedure,_shortened": "as §1"}, "[8]": {"molecular_target": "CSNK1E (CK1 epsilon) R178C (Homo sapiens, UniProt P49674, R178C)", "sequence (P49674 whole entry R178C)": "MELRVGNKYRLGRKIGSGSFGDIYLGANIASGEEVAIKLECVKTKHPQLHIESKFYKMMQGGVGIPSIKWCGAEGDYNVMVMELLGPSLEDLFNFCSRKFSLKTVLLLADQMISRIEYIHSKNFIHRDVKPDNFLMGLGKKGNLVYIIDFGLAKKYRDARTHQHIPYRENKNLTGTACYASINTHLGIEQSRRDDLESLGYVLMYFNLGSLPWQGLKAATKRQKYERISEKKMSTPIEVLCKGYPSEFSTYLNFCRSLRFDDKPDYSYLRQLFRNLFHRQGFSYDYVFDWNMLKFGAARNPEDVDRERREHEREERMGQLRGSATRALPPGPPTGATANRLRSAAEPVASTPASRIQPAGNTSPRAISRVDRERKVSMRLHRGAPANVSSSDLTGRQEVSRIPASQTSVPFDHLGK", "settings": "ATP Km, read-out: Percentage of inhibition", "procedure,_shortened": "as §1"}, "[9]": {"molecular_target": "T6, DYRK4 (Homo sapiens, UniProt Q9NR20)", "T6 construct": "purchased Life Technologies", "settings": "ATP Km, read-out: Percentage of inhibition", "procedure,_shortened": "as §1"}, "[10]": {"molecular_target": "T7, EPHA2 (Homo sapiens, UniProt P29317)", "T7 construct": "purchased Life Technologies", "settings": "ATP Km, read-out: Percentage of inhibition", "procedure,_shortened": "as §1"}, "[11]": {"molecular_target": "T8, EPHA5 (Homo sapiens, UniProt P54756)", "T8 construct": "purchased Life Technologies (SelectScreen Whole Panel service)", "settings": "ATP Km, read-out: Percentage of inhibition", "procedure,_shortened": "as §1"}, "[12]": {"molecular_target": "T9, EPHB3 (Homo sapiens, UniProt P54753)", "T9 construct": "purchased Life Technologies (SelectScreen Whole Panel)", "settings": "ATP Km, read-out: Percentage of inhibition", "procedure,_shortened": "as §1"}, "[13]": {"molecular_target": "T10, FRK (PTK5) (Homo sapiens, UniProt P42685)", "T10 construct": "purchased Life Technologies", "settings": "ATP Km, read-out: Percentage of inhibition", "procedure,_shortened": "as §1"}, "[14]": {"molecular_target": "T11, FYN (Homo sapiens, UniProt P06241)", "T11 construct": "purchased Life Technologies (SelectScreen Whole Panel)", "settings": "ATP Km, read-out: Percentage of inhibition", "procedure,_shortened": "as §1"}, "[15]": {"molecular_target": "T12, HIPK3 (YAK1) (Homo sapiens, UniProt Q9H422)", "T12 construct": "purchased Life Technologies", "settings": "ATP Km, read-out: Percentage of inhibition", "procedure,_shortened": "as §1"}, "[16]": {"molecular_target": "INSR (Homo sapiens, UniProt P06213)", "settings": "ATP Km, read-out: Percentage of inhibition", "procedure,_shortened": "as §1"}, "[17]": {"molecular_target": "T13, MAP4K4 (HGK) (Homo sapiens, UniProt O95819)", "T13 construct": "purchased Life Technologies (SelectScreen service)", "settings": "ATP Km, read-out: Percentage of inhibition", "procedure,_shortened": "as §1"}, "[18]": {"molecular_target": "T14, MAPK8 (JNK1) (Homo sapiens, UniProt P45983)", "T14 construct": "purchased Life Technologies (SelectScreen Whole Panel service)", "settings": "ATP 10 µM, read-out: Percentage of inhibition", "procedure,_shortened": "as §1"}, "[19]": {"molecular_target": "T15, MARK4 (Homo sapiens, UniProt Q96L34)", "T15 construct": "purchased Life Technologies", "settings": "ATP Km, read-out: Percentage of inhibition", "procedure,_shortened": "as §1"}, "[20]": {"molecular_target": "T16, PASK (Homo sapiens, UniProt Q96RG2)", "T16 construct": "purchased Life Technologies (SelectScreen Whole Panel)", "settings": "ATP Km, read-out: Percentage of inhibition", "procedure,_shortened": "as §1"}, "[21]": {"molecular_target": "T17, PDGFRA D842V (Homo sapiens, UniProt P16234, D842V)", "T17 construct": "purchased Life Technologies (SelectScreen Whole Panel service)", "T17 sequence (P16234 24-1089 D842V)": "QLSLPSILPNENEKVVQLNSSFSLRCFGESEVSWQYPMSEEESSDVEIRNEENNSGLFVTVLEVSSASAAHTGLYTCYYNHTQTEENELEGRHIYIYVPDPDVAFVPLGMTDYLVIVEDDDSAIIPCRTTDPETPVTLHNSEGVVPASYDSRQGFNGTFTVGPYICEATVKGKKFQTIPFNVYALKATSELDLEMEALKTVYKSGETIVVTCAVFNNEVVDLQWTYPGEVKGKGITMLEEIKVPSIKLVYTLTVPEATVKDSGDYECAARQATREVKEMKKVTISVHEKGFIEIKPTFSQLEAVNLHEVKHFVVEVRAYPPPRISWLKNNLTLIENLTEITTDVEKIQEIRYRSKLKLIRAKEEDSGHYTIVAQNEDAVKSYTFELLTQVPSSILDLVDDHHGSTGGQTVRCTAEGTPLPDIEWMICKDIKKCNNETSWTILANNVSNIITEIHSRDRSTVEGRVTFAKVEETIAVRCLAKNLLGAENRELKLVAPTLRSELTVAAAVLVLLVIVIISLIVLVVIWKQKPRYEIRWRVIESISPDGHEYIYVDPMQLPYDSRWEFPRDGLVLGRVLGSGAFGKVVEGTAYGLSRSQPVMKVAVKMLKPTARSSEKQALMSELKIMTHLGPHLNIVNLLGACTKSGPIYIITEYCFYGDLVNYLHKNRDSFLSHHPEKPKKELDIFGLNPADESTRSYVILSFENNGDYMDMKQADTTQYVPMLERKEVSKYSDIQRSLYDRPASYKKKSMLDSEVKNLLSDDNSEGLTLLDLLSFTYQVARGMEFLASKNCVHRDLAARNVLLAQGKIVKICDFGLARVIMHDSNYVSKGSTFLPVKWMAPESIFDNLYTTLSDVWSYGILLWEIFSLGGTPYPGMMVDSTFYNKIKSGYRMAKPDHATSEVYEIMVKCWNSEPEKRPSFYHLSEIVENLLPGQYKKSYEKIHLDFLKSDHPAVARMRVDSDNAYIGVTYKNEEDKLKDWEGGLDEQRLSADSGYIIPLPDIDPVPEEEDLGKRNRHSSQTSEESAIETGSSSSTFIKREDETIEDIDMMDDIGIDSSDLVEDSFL", "settings": "ATP Km, read-out: Percentage of inhibition", "procedure,_shortened": "as §1"}, "[22]": {"molecular_target": "T18, PDGFRA V561D (Homo sapiens, UniProt P16234, V561D)", "T18 construct": "purchased Life Technologies (SelectScreen service)", "T18 sequence (P16234 24-1089 V561D)": "as the sequence (P16234 24-1089 D842V) above, with V538D, V819D counted along it", "settings": "ATP Km, read-out: Percentage of inhibition", "procedure,_shortened": "as §1"}, "[23]": {"molecular_target": "T19, PDGFRB (PDGFR beta) (Homo sapiens, UniProt P09619)", "T19 construct": "purchased Life Technologies (SelectScreen service)", "settings": "ATP Km, read-out: Percentage of inhibition", "procedure,_shortened": "as §1"}, "[24]": {"molecular_target": "T20, PIM1 (Homo sapiens, UniProt P11309)", "T20 construct": "purchased Life Technologies (SelectScreen service)", "settings": "ATP Km, read-out: Percentage of inhibition", "procedure,_shortened": "as §1"}, "[25]": {"molecular_target": "T21, PKN1 (PRK1) (Homo sapiens, UniProt Q16512)", "T21 construct": "purchased Life Technologies", "settings": "ATP Km, read-out: Percentage of inhibition", "procedure,_shortened": "as §1"}, "[26]": {"molecular_target": "T22, PLK3 (Homo sapiens, UniProt Q9H4B4)", "T22 construct": "purchased Life Technologies (SelectScreen service)", "settings": "ATP Km, read-out: Percentage of inhibition", "procedure,_shortened": "as §1"}, "[27]": {"molecular_target": "PRKCA (PKC alpha) (Homo sapiens, UniProt P17252)", "settings": "ATP Km, read-out: Percentage of inhibition", "procedure,_shortened": "as §1"}, "[28]": {"molecular_target": "T23, PRKCB1 (PKC beta I) (Homo sapiens, UniProt P05771)", "T23 construct": "purchased Life Technologies (SelectScreen)", "settings": "ATP Km, read-out: Percentage of inhibition", "procedure,_shortened": "as §1"}, "[29]": {"molecular_target": "T24, PRKCN (PKD3) (Homo sapiens, UniProt O94806)", "T24 construct": "purchased Life Technologies", "settings": "ATP Km, read-out: Percentage of inhibition", "procedure,_shortened": "as §1"}, "[30]": {"molecular_target": "PRKCQ (PKC theta) (Homo sapiens, UniProt Q04759)", "settings": "ATP Km, read-out: Percentage of inhibition", "procedure,_shortened": "as §1"}, "[31]": {"molecular_target": "PRKCZ (PKC zeta) (Homo sapiens, UniProt Q05513)", "sequence (Q05513 whole entry)": "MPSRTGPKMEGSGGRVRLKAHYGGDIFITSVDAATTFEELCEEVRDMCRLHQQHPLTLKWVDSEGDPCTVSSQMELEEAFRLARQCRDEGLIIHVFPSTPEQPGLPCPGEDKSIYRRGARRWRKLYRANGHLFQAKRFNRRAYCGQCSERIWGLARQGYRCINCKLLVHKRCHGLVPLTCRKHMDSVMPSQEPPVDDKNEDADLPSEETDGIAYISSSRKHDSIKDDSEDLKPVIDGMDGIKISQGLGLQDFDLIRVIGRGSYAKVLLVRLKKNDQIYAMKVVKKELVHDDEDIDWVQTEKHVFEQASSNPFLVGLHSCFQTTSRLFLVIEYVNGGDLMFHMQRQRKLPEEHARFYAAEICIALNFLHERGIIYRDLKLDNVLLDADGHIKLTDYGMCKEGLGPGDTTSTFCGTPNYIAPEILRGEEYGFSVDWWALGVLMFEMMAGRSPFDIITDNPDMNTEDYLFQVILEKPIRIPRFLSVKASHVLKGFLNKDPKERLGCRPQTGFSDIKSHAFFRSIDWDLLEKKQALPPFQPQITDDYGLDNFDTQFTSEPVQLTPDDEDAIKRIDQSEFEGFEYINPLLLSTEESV", "settings": "ATP Km, read-out: Percentage of inhibition", "procedure,_shortened": "as §1"}, "[32]": {"molecular_target": "PTK6 (Brk) (Homo sapiens, UniProt Q13882)", "settings": "ATP Km, read-out: Percentage of inhibition", "procedure,_shortened": "as §1"}, "[33]": {"molecular_target": "T25, RET A883F (Homo sapiens, UniProt P07949, A883F)", "T25 construct": "purchased Life Technologies (SelectScreen service)", "T25 sequence (P07949 29-1114 A883F)": "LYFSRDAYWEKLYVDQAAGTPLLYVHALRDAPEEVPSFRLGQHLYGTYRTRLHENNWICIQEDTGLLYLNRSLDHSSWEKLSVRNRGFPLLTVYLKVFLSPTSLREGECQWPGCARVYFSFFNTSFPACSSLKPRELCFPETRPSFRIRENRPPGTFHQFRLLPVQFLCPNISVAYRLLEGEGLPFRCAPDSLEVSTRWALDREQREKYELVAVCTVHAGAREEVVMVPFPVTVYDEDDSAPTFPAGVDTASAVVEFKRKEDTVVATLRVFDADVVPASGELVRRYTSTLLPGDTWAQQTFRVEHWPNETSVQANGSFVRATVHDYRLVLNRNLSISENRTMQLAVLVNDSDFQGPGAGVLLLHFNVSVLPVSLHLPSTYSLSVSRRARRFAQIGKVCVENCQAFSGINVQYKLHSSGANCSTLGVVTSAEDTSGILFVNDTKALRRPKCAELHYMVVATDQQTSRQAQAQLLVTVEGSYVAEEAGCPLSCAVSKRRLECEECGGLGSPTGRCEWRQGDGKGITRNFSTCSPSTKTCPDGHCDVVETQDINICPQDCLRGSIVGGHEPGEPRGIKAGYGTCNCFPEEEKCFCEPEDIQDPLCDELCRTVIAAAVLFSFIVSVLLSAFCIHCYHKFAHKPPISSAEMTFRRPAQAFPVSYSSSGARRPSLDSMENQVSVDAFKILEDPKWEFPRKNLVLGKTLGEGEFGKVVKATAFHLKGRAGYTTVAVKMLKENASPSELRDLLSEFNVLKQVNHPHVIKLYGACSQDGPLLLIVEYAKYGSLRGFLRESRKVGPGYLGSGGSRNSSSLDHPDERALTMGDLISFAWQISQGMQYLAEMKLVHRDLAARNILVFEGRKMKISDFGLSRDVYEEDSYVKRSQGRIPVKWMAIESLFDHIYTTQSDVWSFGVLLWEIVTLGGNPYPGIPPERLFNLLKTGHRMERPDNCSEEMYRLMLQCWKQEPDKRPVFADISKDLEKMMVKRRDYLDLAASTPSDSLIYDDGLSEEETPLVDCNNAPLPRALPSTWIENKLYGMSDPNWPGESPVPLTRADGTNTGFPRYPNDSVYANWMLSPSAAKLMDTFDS", "settings": "ATP Km, read-out: Percentage of inhibition", "procedure,_shortened": "as §1"}, "[34]": {"molecular_target": "T26, RPS6KA1 (RSK1) (Homo sapiens, UniProt Q15418)", "T26 construct": "purchased Life Technologies (SelectScreen service)", "settings": "ATP Km, read-out: Percentage of inhibition", "procedure,_shortened": "as §1"}, "[35]": {"molecular_target": "SRC N1 (Homo sapiens, UniProt P12931)", "sequence (P12931 1-542 isoform P12931-2)": "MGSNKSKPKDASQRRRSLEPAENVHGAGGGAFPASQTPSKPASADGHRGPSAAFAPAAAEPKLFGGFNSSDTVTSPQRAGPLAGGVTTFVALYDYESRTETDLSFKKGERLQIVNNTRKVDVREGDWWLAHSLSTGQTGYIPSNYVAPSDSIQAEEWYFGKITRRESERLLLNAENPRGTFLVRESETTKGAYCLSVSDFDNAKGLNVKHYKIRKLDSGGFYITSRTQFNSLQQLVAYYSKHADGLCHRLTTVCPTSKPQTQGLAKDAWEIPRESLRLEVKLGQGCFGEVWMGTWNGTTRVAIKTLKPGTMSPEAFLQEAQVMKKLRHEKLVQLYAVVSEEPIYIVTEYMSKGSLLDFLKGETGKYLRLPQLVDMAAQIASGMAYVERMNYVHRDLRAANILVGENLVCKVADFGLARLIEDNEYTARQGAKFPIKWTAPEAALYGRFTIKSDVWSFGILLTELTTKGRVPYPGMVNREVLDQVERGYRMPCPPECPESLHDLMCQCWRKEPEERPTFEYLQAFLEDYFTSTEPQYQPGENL", "settings": "ATP Km, read-out: Percentage of inhibition", "procedure,_shortened": "as §1"}, "[36]": {"molecular_target": "SRPK1 (Homo sapiens, UniProt Q96SB4)", "settings": "ATP Km, read-out: Percentage of inhibition", "procedure,_shortened": "as §1"}, "[37]": {"molecular_target": "SRPK2 (Homo sapiens, UniProt P78362)", "sequence (P78362 whole entry)": "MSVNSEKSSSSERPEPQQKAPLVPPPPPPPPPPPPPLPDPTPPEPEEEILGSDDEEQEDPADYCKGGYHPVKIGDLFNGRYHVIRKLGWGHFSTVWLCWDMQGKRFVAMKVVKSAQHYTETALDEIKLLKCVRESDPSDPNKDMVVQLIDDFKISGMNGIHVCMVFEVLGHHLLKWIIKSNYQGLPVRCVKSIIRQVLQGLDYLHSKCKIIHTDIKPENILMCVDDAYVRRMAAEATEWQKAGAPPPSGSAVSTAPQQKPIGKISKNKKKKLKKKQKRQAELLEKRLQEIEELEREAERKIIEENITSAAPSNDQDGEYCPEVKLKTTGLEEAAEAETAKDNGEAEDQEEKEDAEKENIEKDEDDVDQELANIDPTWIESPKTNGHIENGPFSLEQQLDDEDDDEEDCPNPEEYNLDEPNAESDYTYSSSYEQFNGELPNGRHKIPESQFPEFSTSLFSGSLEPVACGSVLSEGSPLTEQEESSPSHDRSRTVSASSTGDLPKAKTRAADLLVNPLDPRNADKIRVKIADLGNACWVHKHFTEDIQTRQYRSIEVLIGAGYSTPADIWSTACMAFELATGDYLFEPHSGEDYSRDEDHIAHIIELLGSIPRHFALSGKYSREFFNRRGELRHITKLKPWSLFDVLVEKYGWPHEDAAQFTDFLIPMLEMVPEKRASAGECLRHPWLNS", "settings": "ATP Km, read-out: Percentage of inhibition", "procedure,_shortened": "as §1"}, "[38]": {"molecular_target": "T27, TAOK2 (TAO1) (Homo sapiens, UniProt Q9UL54)", "T27 construct": "purchased Life Technologies", "settings": "ATP Km, read-out: Percentage of inhibition", "procedure,_shortened": "as §1"}},
  "data": [
    {"smiles": "COc1ccc2[nH]c3c(=O)[nH]c4ccc(O)cc4c3c2c1", "note": "[Compound 55, 2-Hydroxy-10-methoxy-5,7-dihydro-6H-indolo[2,3-c]quinolin-6-one]", "values": [
      {"measurement": "inhibition at 1 µM", "setting": "[1]", "result": 24, "unit": "%"},
      {"measurement": "inhibition at 1 µM", "setting": "[2]", "result": 0, "unit": "%"},
      {"measurement": "inhibition at 1 µM", "setting": "[3]", "result": 6, "unit": "%"},
      {"measurement": "inhibition at 1 µM", "setting": "[4]", "result": 14, "unit": "%"},
      {"measurement": "inhibition at 1 µM", "setting": "[5]", "result": 8, "unit": "%"},
      {"measurement": "inhibition at 1 µM", "setting": "[6]", "result": 32, "unit": "%"},
      {"measurement": "inhibition at 1 µM", "setting": "[7]", "result": 98, "unit": "%"},
      {"measurement": "inhibition at 1 µM", "setting": "[8]", "result": 70, "unit": "%"},
      {"measurement": "inhibition at 1 µM", "setting": "[9]", "result": 42, "unit": "%"},
      {"measurement": "inhibition at 1 µM", "setting": "[10]", "result": 40, "unit": "%"},
      {"measurement": "inhibition at 1 µM", "setting": "[11]", "result": 18, "unit": "%"},
      {"measurement": "inhibition at 1 µM", "setting": "[12]", "result": -9, "unit": "%"},
      {"measurement": "inhibition at 1 µM", "setting": "[13]", "result": 33, "unit": "%"},
      {"measurement": "inhibition at 1 µM", "setting": "[14]", "result": 49, "unit": "%"},
      {"measurement": "inhibition at 1 µM", "setting": "[15]", "result": 35, "unit": "%"},
      {"measurement": "inhibition at 1 µM", "setting": "[16]", "result": 21, "unit": "%"},
      {"measurement": "inhibition at 1 µM", "setting": "[17]", "result": 81, "unit": "%"},
      {"measurement": "inhibition at 1 µM", "setting": "[18]", "result": 15, "unit": "%"},
      {"measurement": "inhibition at 1 µM", "setting": "[19]", "result": 31, "unit": "%"},
      {"measurement": "inhibition at 1 µM", "setting": "[20]", "result": 49, "unit": "%"},
      {"measurement": "inhibition at 1 µM", "setting": "[21]", "result": 49, "unit": "%"},
      {"measurement": "inhibition at 1 µM", "setting": "[22]", "result": 79, "unit": "%"},
      {"measurement": "inhibition at 1 µM", "setting": "[23]", "result": 23, "unit": "%"},
      {"measurement": "inhibition at 1 µM", "setting": "[24]", "result": 71, "unit": "%"},
      {"measurement": "inhibition at 1 µM", "setting": "[25]", "result": 4, "unit": "%"},
      {"measurement": "inhibition at 1 µM", "setting": "[26]", "result": 25, "unit": "%"},
      {"measurement": "inhibition at 1 µM", "setting": "[27]", "result": 14, "unit": "%"},
      {"measurement": "inhibition at 1 µM", "setting": "[28]", "result": 8, "unit": "%"},
      {"measurement": "inhibition at 1 µM", "setting": "[29]", "result": 40, "unit": "%"},
      {"measurement": "inhibition at 1 µM", "setting": "[30]", "result": 7, "unit": "%"},
      {"measurement": "inhibition at 1 µM", "setting": "[31]", "result": 7, "unit": "%"},
      {"measurement": "inhibition at 1 µM", "setting": "[32]", "result": 19, "unit": "%"},
      {"measurement": "inhibition at 1 µM", "setting": "[33]", "result": 85, "unit": "%"},
      {"measurement": "inhibition at 1 µM", "setting": "[34]", "result": 89, "unit": "%"},
      {"measurement": "inhibition at 1 µM", "setting": "[35]", "result": 59, "unit": "%"},
      {"measurement": "inhibition at 1 µM", "setting": "[36]", "result": 7, "unit": "%"},
      {"measurement": "inhibition at 1 µM", "setting": "[37]", "result": 6, "unit": "%"},
      {"measurement": "inhibition at 1 µM", "setting": "[38]", "result": 3, "unit": "%"}
    ]}
  ]
}
